# In patent US20130109693A1, “DERIVATIVES OF PYRIDO [3,2-D] PYRIMIDINE, METHODS FOR PREPARATION THEREOF AND THERAPEUTIC USES THEREOF” (UNIVERSITE D'ORLEANS, priority 2010, published 2013):
# How the values were obtained:
# [1] = system: Huh7; test: Cytotoxicity on human cells, Huh7 (liver); format: cell-based; conditions: Huh-7, human cells, exposed 24 h and 48 h, 0.1 to 25 μM
# Experimental: (§1) […] Dosages on Human cells (Huh7, Caco, MDA-MB 231, HCT 116, PC3, NCl, Fibroblast)
# (§2) Cytotoxicity: This method is based on an automated imaging analysis. 4.10^3 cells were cultivated on 96-well plates and thus left for 24 hours so that they may bind, be distributed and proliferate.
# (§3) These cells were then exposed for 24 h and 48 h to increasing concentrations of the compounds of the invention, from 0.1 to 25 μM in a final volume of 80 μL of culture medium. The cells are then set with a 4% paraformaldehyde solution and the nuclei are colored with Hoechst 3342 and counted according to automated imaging quantification.
# (§4) All the cell lines were cultivated in a DMEM or RPMI (Invitrogen) medium. All these media were completed with antibiotics (penicillin-streptomycin)(Lonza) and 10% by volume of foetal calf serum (Invitrogen). The cells were cultivated at 37° C. with 5% of CO2. The treatments with the molecules to be tested were carried out with increasing concentrations. […] The control experiments were also conducted by using suitable dilutions of DMSO (maximum 1% DMSO). Cell viability was determined by measuring the reduction of MTS as described in the article of Ribas J, Boix J. (2004). Cell differentiation caspase inhibition and macromolecular synthesis blockage but not BCL-2 or BCL-XL proteins protect SH-SY5Y cells from apoptosis triggered by two CDK inhibitory drugs. Exp. Cell Res., 295: 9-24.
# [2] = system: Caco; test: Cytotoxicity on human cells, Caco (colon); format: cell-based; conditions: exposed 24 h and 48 h, 0.1 to 25 μM
# Experimental: as §1, §2, §3, §4
# [3] = system: MDA-MB 231; test: Cytotoxicity on human cells, MDA-MB 231 (breast); format: cell-based; conditions: MDA-MB-231, human cells, exposed 24 h and 48 h, 0.1 to 25 μM
# Experimental: as §1, §2, §3, §4
# [4] = system: HCT 116; test: Cytotoxicity on human cells, HCT 116 (colon); format: cell-based; conditions: exposed 24 h and 48 h, 0.1 to 25 μM
# Experimental: as §1, §2, §3, §4
# [5] = system: PC3; test: Cytotoxicity on human cells, PC3 (prostate); format: cell-based; conditions: PC-3, human cells, exposed 24 h and 48 h, 0.1 to 25 μM
# Experimental: as §1, §2, §3, §4
# [6] = system: NCI; test: Cytotoxicity on human cells, NCI (lung); format: cell-based; conditions: exposed 24 h and 48 h, 0.1 to 25 μM
# Experimental: as §1, §2, §3, §4
# [7] = system: fibroblast; test: Cytotoxicity on human cells, fibroblast; format: cell-based; conditions: exposed 24 h and 48 h, 0.1 to 25 μM
# Experimental: as §1, §2, §3, §4
# [8] = target: DYRK1A (Homo sapiens, UniProt Q13627); test: DYRK1A kinase inhibition (Woodtide substrate, buffer A); format: biochemical; conditions: 15 μM ATP, 30° C., recombinant GST fusion; read-out: IC50 Kinases DYRK1A
# Experimental: (§5) The activities for inhibiting protein kinases of the compounds of the invention are tested according to the following general procedure:
# (§6) Buffer A: 10 mM MgCl2, 1 mM EGTA, 1 mM DTT, 25 mM Tris-HCl pH 7.5 and 50 μg heparin/mL.
# (§7) The kinase activities are dosed in buffers A or C, at 30° C., at a final concentration of ATP of 15 μM. The values of the blanks were subtracted and the activities are expressed as a % of the maximum activity, i.e. in the absence of inhibitors. The controls were carried out with suitable dilutions of DMSO.
# [9] = target: T1, CDK5 (Homo sapiens, UniProt Q00535); test: CDK5 kinase inhibition (histone H1, [γ-33P] ATP, buffer C); format: biochemical; conditions: 15 μM ATP, 30° C., recombinant; read-out: IC50 Kinases CDK5
# T1 construct: made in house
# Experimental: as §5
# Buffer C: 60 mM β-glycerophosphate, 15 mM p-nitrophenyl-phosphate, 25 mM Mops (pH 7.2), 5 mM EGTA, 15 mM MgCl2, 1 mM DTT, 1 mM of sodium vanadate
# as §7
# CDK5 (humane, recombinant) was prepared as described earlier (Leclerc, S.; Garnier, M.; Hoessel, R.; Marko, D.; Bibb, J. A.; Snyder, G. L.; Greengard, P.; Biernat, J.; Mandelkow, E.-M.; Eisenbrand, G.; Meijer, L. Indirubins inhibit glycogen synthase kinase-3β and CDK5/p25, two kinases involved in abnormal tau phosphorylation in Alzheimer's disease—A property common to most CDK inhibitors? J. Biol. Chem. 2001, 276, 251-260; Bach S, Knockaert M, Reinhardt J, Lozach O, Schmitt S, Baratte B et al. (2005). Roscovitine targets, protein kinases and pyridoxal kinase. J. Biol Chem 280: 31208-31219). Its kinase activity was analyzed in the buffer C, with 1 mg of histone H1/mL, in the presence of 15 μM of [γ-^33P] ATP (3,000 Ci/mmol; 10 mCi/mL) in a final volume of 30 μl. After 30 mins of incubation at 30° C., 25 μl of supernatant aliquots were deposited on 2.5×3 cm pieces of phosphocellulose Whatman P81 paper, and after 20 seconds, the filters were washed five times (for at least 5 minutes every time) in a solution of 10 mL phosphoric acid/liter of water. The wet filters were counted in the presence of 1 mL of ACS scintillator fluid (Amersham).
# [10] = target: GSK-3αβ; test: GSK-3αβ kinase inhibition (GS-1 substrate, buffer A); format: biochemical; conditions: 15 μM ATP, 30° C., native, pig brain; read-out: IC50 Kinases GSK3
# Experimental: as §5, §6, §7
# GSK-3αβ (from pig brain, native) was assayed by using a specific substrate of GSK-3 (GS-1: […]pEDEEE)(Sp represents a phosphorylated serine) (Primot, A., Baratte, B., Gompel, M., Borgne, A., Liabeuf, S., Romette, J. L., Costantini, F. and Meijer, L., 2000. Purification of GSK-3 by affinity chromatography on immobilized axin. Protein Expr. & Purif. 20 (3), 394-404). GS-1 was synthesized by Millegen (Labège, France). Its kinase activity was analyzed in the buffer A, with 1 mg of histone H1/mL, in the presence of 15 μM of [γ-^33P] ATP (3,000 Ci/mmol; 10 mCi/mL) in a final volume of 30 μl. After 30 mins of incubation at 30° C., 25 μl of supernatant aliquots were deposited on 2.5×3 cm pieces of phosphocellulose Whatman P81papier, and after 20 seconds, the filters were washed five times (for at least 5 minutes every time) in a solution of 10 mL of phosphoric acid/liter of water. The wet filters were counted in the presence of 1 mL of ACS scintillator fluid (Amersham).
# T1 sequence (Q00535 whole entry): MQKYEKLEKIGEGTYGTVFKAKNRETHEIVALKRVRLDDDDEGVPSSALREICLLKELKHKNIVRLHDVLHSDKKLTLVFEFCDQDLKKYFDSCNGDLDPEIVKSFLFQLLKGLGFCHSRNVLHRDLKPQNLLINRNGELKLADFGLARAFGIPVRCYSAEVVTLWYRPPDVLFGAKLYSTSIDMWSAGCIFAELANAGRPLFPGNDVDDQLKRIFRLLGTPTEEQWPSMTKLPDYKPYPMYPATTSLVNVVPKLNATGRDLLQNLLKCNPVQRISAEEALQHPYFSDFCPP
# T1 sequence (Q15078 99-307 partner limits assumed): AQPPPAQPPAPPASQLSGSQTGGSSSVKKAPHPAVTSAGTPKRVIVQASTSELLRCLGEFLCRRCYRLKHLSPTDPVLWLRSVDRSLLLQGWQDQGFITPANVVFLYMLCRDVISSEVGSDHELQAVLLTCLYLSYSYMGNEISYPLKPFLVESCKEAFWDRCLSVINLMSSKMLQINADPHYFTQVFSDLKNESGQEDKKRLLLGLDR
SMILES,IC50 [8],IC50 [9],IC50 [10],melting point,IC50 [1],IC50 [2],IC50 [3],IC50 [4],IC50 [5],IC50 [6],IC50 [7]
"COc1ccc(-c2cnc3cnc(-c4ccc(O)cc4)nc3c2)cn1 [Compound 32, 2-(4-Hydroxyphenyl)-7-(3-(6-methoxy)-pyridinyl)-pyrido[3,2-d]pyrimidine]",> 10 µM,1.2 µM,> 10 µM,246 to 248 °C,> 25 µM,> 25 µM,25 µM,> 25 µM,> 25 µM,25 µM,10 µM
"Oc1ccc(-c2ncc3ncc(-c4cccnc4)cc3n2)cc1 [Compound 33, 2-(4-Hydroxyphenyl)-7-(3-pyridinyl)-pyrido[3,2-d]pyrimidine]",> 10 µM,0.65 µM,> 10 µM,> 268 °C,> 25 µM,> 25 µM,> 25 µM,> 25 µM,> 25 µM,> 25 µM,> 25 µM
"Oc1ccc(-c2ncc3ncc(-c4ccco4)cc3n2)cc1 [Compound 35, 2-(4-Hydroxyphenyl)-7-(2-furyl)-pyrido[3,2-d]pyrimidine]",> 10 µM,1.8 µM,> 10 µM,261 to 263 °C,15 µM,> 25 µM,4 µM,5 µM,20 µM,7 µM,6 µM
"Oc1ccc(-c2ncc3ncc(Nc4nc5ccccc5s4)cc3n2)cc1 [Compound 47, 2-(4-Hydroxyphenyl)-7-(2-benzothiazolamino)-pyrido[3,2-d]pyrimidine]",> 10 µM,5.3 µM,> 10 µM,> 268 °C,> 25 µM,> 25 µM,> 25 µM,> 25 µM,> 25 µM,> 25 µM,> 25 µM
"Oc1ccc(-c2ncc3ncc(Nc4ccon4)cc3n2)cc1 [Compound 48, 2-(4-Hydroxyphenyl)-7-(3-isoxazolamino)-pyrido[3,2-d]pyrimidine]",2 µM,2.1 µM,> 10 µM,> 268 °C,25 µM,20 µM,12 µM,9 µM,20 µM,3 µM,15 µM

# More lines, main results first:
IC50 [8],IC50 [9],IC50 [10],melting point,SMILES,IC50 [1],IC50 [2],IC50 [3],IC50 [4],IC50 [5],IC50 [6],IC50 [7]
> 10 µM,0.13 µM,> 10 µM,> 268 °C,"Oc1ccc(-c2ncc3ncc(-c4ccncc4)cc3n2)cc1 [Compound 34, 2-(4-Hydroxyphenyl)-7-(4-pyridinyl)-pyrido[3,2-d]pyrimidine]",> 25 µM,> 25 µM,> 25 µM,10 µM,> 25 µM,5 µM,15 µM
> 10 µM,0.12 µM,> 10 µM,248 to 250 °C,"Oc1ccc(-c2ncc3ncc(-c4ccsc4)cc3n2)cc1 [Compound 37, 2-(4-Hydroxyphenyl)-7-(3-thiophyl)-pyrido[3,2-d]pyrimidine]",> 25 µM,> 25 µM,> 25 µM,15 µM,> 25 µM,10 µM,> 25 µM
> 10 µM,0.11 µM,> 10 µM,240 to 242 °C,"Oc1ccc(-c2ncc3ncc(-c4cccs4)cc3n2)cc1 [Compound 38, 2-(4-Hydroxyphenyl)-7-(2-thiophyl)-pyrido[3,2-d]pyrimidine]",> 25 µM,> 25 µM,> 25 µM,4 µM,25 µM,3 µM,2 µM
